Measurements reported in publication PMC6222292 (Computational and Structural Biotechnology Journal, 2018).

Molecular target: T1, soluble epoxide hydrolase (sEH) (Homo sapiens, UniProt P34913)
T1 sequence (P34913 1-555): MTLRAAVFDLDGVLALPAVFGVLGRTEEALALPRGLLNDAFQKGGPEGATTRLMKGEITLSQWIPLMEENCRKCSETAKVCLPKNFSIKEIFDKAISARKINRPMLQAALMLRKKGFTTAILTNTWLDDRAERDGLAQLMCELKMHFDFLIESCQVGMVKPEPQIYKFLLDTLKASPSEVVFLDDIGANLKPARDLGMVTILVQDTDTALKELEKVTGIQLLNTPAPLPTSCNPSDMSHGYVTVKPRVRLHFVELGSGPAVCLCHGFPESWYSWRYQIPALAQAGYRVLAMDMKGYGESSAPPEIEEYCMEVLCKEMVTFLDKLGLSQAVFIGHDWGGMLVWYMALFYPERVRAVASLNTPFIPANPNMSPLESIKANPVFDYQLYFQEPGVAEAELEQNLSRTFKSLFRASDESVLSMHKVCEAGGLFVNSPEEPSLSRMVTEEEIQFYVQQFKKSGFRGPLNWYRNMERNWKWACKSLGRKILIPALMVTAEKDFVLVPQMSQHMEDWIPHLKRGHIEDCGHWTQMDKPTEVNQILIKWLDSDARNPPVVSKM
Test: fluorescent PHOME hydrolysis assay
Assay type: biochemical

SMILES	IC50 [µM]
O=C(/C=C/c1ccc(O)cc1)NCCc1ccc(O)cc1 [compound 1, N-trans-coumaroyltyramine]	9 ± 0.8
COc1cc(/C=C/C(=O)NCCc2ccc(O)cc2)ccc1O [compound 2, N-trans-feruloyltyramine]	10.4 ± 1.1
